Patent US12178846B2, “Methods of using gap junctions as therapeutic targets for the treatment of degenerative disorders of the retina” (The Research Foundation for The State University of New York, priority 2014, dated 2024)
Entries after “also recorded” stand apart in the source; their conditions may differ.

Legend:
ischemic retina = test: Transient in vivo retinal ischemia-reperfusion (raised IOP), 7 days reperfusion; set-up: species or system mouse
Method: Various methods were employed to produce cell death. (1) Single cell apoptosis: CytC was injected into individual RGCs or Müller cells for 15 minutes after which retinas were incubated for 4 hours in oxygenated Ames medium before fixation. After streptavidin histology, apoptotic cells were detected with an anti-active caspase 3 antibody or with Terminal deoxynucleotidyl transferase dUTP nick end labeling (TUNEL) staining. (2) Excitotoxicity: To assess the contribution of GJs to cell death within populations of RGCs and amacrine cells we conducted parallel experiments in which retinas were preincubated for 20 minutes in normal Ames medium or in one containing the GJ blockers meclofenamic acid (MFA; 50 μM) or 18-beta-glycyrrhetinic acid (18Beta-GA; 25 μM). Both control and drug-treated retinas were then exposed for 1 hour to NMDA (100-300 μM) to induce excitotoxicity followed by 4 hours in the control Ames solution. (3) Retinal ischemia: Transient in vivo retinal ischemia was induced by introducing into the anterior chamber a 33-gauge needle attached to a saline-filled reservoir (0.9% sodium chloride) that was raised above the animal so as to increase intraocular pressure (IOP) to a level […]. MFA (2 μl, 500 μM) was administered intravitreally either 30 minutes before or 3 and 24 hours following the ischemic insult. The opposite eye was cannulated, but maintained at normal IOP to serve as a normotensive control. After 40-50 minutes, the needle was withdrawn and ischemia was evidenced by corneal whitening. After 7 days of reperfusion, mice were sacrificed and eyes were processed to assess retinal damage and neuronal death. We also employed oxygen-glucose deprivation (OGD) to induce in vitro ischemia, in which retina-eyecups or isolated retinal whole-mounts were exposed continuously to either a control, oxygenated Ringer solution, or one that was glucose-free and deoxygenated by bubbling extensively with 95% N2/5% CO2 at 34° C. Following 60 minutes in the OGD environment, retinas were transferred to a control, oxygenated Ames medium for 4 hours before processing to evaluate cell death. Apoptotic and necrotic cell death were assessed by cell counts following: (1) staining with Live/Death Viability Assay (calcein AM/ethidium homodimer (EthD) (Invitrogen); (2) TUNEL, or, (3) labeling for activated caspase 3. For population studies, dead cells were counted manually within 500×500 μm areas (5 areas per retina) from micrographs of whole-mounts using images acquired by confocal microscope. Nuclear cell counts were made per unit length (500 μm) of frozen retinal cross-sections labeled with propidium iodide (2 μg/ml). In some experiments, cells counts were limited to retrograde labeled RGCs in the GCL or certain subpopulation of amacrine cells, identified by specific markers, such as calretinin (CR), calbindin (CB) and choline acetyltransferase (ChAT) in the INL. Fluorescence intensity measures were made of glial fibrillary acidic protein (GFAP), which is overexpressed in Müller glial cells following retinal injury. Expression of GFAP and connexins were quantified by analysis of confocal images with Metavue software (Molecular Devices). Average pixel fluorescence intensities were measured by using uniform rectangular areas (3-5 per image) extending either from the GCL to the outer limiting membrane for GFAP or through the IPL for connexins. The intensity values were then averaged for at least 5 images from 3-5 independent experiments and data were normalized to controls.

GJs = test: Retrograde Neurobiotin labeling of amacrine cells coupled to RGCs; assay type: cell-based, mouse
Method: After experimental treatment, retinas were fixed with 4% paraformaldehyde in a 0.1 M phosphate buffer solution (PBS; pH 7.4) for 30 minutes at room temperature, cryoprotected in 30% sucrose, embedded in Tissue-Tek OCT Compound (Andwin Scientific) and frozen. Cryosections (18-20 μm thick) were cut and mounted on microscope slides. For immunostaining, sections were blocked in 3% donkey serum in 0.1M PBS supplemented with 0.5% Triton X-100, and 0.1% NaN3 for 1 h at room temperature. Primary antibodies were diluted in 0.1M PBS with 0.5% Triton X-100, 0.1% NaN3 and 1% donkey or goat serum. Tissues were then incubated with primary antibodies for 3 hours at room temperature or overnight at 4° C. The following primary antibodies were used: rabbit anti-calretinin 1:2000, rabbit anti-calbindin 1:1000, goat ant-ChAT 1:100 (all from Millipore), rabbit anti-GFAP 1:1000 (Invitrogen), rabbit anti-active caspase 3 1:200 (Abcam); mouse anti-Cx35/36 1:300, mouse anti-Cx45 1:300 (both from Millipore). After extensive washing with 0.1M PBS, tissues were incubated for 1 hour in secondary anti-goat/rabbit/mouse antibodies conjugated to Alexa-488 or Alexa-594 (1:200, Molecular Probes). Retinal sections were counterstained with the nuclear dye propidium iodide (PI, Molecular Probes). Neurobiotin was visualized with Alexa-488/594 conjugated streptavidin (Molecular Probes, 1:200). Tissues were then flat-mounted in Vectashield media (Vector Labs) and fluorescent images were taken using a fluorescent microscope or an Olympus FV1200 MPE confocal microscope.
We used retrograde labeling of RGCs with Neurobiotin to visualize populations of amacrine cells in the inner nuclear layer (INL) to which they were coupled. Globes with attached optic nerves were submersed in oxygenated Ames medium and a drop of Neurobiotin (4% in 0.1 M Tris buffer) was applied to the cut optic nerve for 40 minutes. For retrograde labeling limited to RGCs, Neurobiotin was replaced with Lucifer yellow (LY, 3%). […]

[1] = MFA 500 μM, 2 μl intravitreal 30 min before ischemic insult
[2] = MFA intravitreal 3 and 24 hours after transient ischemia, measured one week after insult, p<0.01
[3] = MFA, transient ischemia, p<0.001

Cc1ccc(Cl)c(Nc2ccccc2C(=O)O)c1Cl [MFA, meclofenamic acid]
cell counts in the GCL (ischemic retina; [1]): preserved | retinal thickness / retinal morphology (ischemic retina; [1]): preserved; also recorded: prevented changes | GFAP expression (ischemic retina; [2]): maintenance of normal levels | cell counts in the GCL (ischemic retina; [2]): maintenance of normal levels; also recorded: significantly limit | retinal thickness (ischemic retina; [2]): maintenance of normal levels | number of ChAT-positive ACs in the INL (ischemic retina; MFA, ischemic retinas, p>0.1): no effect | number of CB-immunoreactive ACs in the INL (ischemic retina; [3]): prevented the loss; also recorded: largely prevented a reduction | number of CR-immunoreactive ACs in the INL (ischemic retina; [3]): prevented the loss | number of ChAT-positive ACs labeled with Neurobiotin (GJs; MFA application, p>0.1): did not produce a significant reduction; also recorded: little effect | Neurobiotin labeling of CR-positive ACs in the INL (coupling to RGCs) (GJs; MFA prior to retrograde labeling, p<0.01): effectively eliminated all colocalized labeling; also recorded: significantly reduced | total number of CR-IR cells in the INL (per 500 μm section) (GJs; MFA-treated retinas vs control, p>0.1): comparable to that in control
